≈ marks a conversion by molar mass, not a printed value. Where two headings read alike, the source gives them in different places.
Legend:
[1] = Solubility determination (shaking 24 hours, HPLC); type: physicochemical; settings: for solubility at 24 h: thermodynamic from solid, shaking 24 hours
Method: An aqueous solution of pH 2.0 (the pH was adjusted with an appropriate amount of hydrochloric acid), an aqueous solution of pH 7.4 (the pH was adjusted with 10 mM potassium dihydrogen phosphate and an appropriate amount of NaOH), and a fasted-state simulated intestinal fluid (FaSSIF) were prepared as solvents, respectively. Several portions of the sample for test, 1 mg each, were weighed and dissolved in different solvents, 1 mL each. The solutions were thoroughly shaked, and then subjected to ultrasonic operation for 5 minutes. […] After shaking in a constant temperature shaking water bath for 24 hours, filtration was carried out through a 0.45 uM aqueous filter membrane, followed by HPLC analysis for determination of the solubility.

[2] = Hygroscopicity test by dynamic vapor sorption (DVS); type: physicochemical; settings: 25° C.
Method: The hygroscopicity of crystalline forms A and B of the fumarate salt was measured by dynamic vapor sorption (DVS) using a DVS Intrinsic (SMS) at 25° C. in a cycle-DMDT mode.

[3] = Physicochemical stability test, placed open at 40° C./75% RH; settings: placed open 14 days at 40° C./75% RH
Method: An appropriate amount of crystalline form A of the fumarate salt of the compound of Formula (I) of the invention was detected for the physicochemical stability thereof under the following conditions: placed open for 14 days at 40° C./75% RH. XRPD and LC-MS analysis were then carried out to determine the crystalline form and the change in purity.

[4] = Pharmacokinetic experiment in beagle dogs; type: in vivo; settings: 2.5 mg/kg, capsules intragastrically
Method: The crystalline forms A and C of the fumarate salt of the compound of Formula (I) were encapsulated into capsules and administered intragastrically to beagle dogs at a dose of 2.5 mg/kg. Venous blood was collected at different time points after administration and separately subjected to the detection of the original free base form of the compound of Formula (I) and its metabolite tenofovir (TFV).

[5] = phase III clinical trial, cited from earlier work
[6] = beagle, dog, venous blood, po, analyte: free base of the compound of Formula (I)
[7] = analyte: free base of the compound of Formula (I), listed as crystalline form A of the fumarate salt
[8] = analyte: free base of the compound of Formula (I), listed as crystalline form C of the fumarate salt

C[C@H](Cn1cnc2c(N)ncnc21)OC[P@@](=O)(NCCOCc1ccccc1)Oc1ccccc1 [listing 1 of 3 here]
solubility at 24 h ([1]; aqueous solution of pH 2.0, simulated gastric fluid, aqueous solution pH 2.0 (hydrochloric acid), read-out: Solubility, H2O (pH 2.0)): 1000 µg/mL (≈ 2010 µM)
solubility at 24 h ([1]; aqueous solution of pH 7.4, aqueous buffer, aqueous solution pH 7.4 (10 mM potassium dihydrogen phosphate/NaOH), read-out: Solubility, H2O (pH 7.4)): 990 µg/mL (≈ 1990 µM)
solubility at 24 h ([1]; fasted-state simulated intestinal fluid (FaSSIF), FaSSIF, read-out: Solubility, fasted-state simulated intestinal fluid (FaSSIF)): 910 µg/mL (≈ 1830 µM)
Solubility (in words) ([1]; water and fasted-state intestinal fluid): good solubility
Hygroscopicity (in words) ([2]; DVS): little or no hygroscopicity
Mass change caused by moisture absorption (%) ([2]; target humidity 0%): 0%
Mass change caused by moisture absorption (%) ([2]; target humidity 10%): 0.019%
Mass change caused by moisture absorption (%) ([2]; target humidity 20%, listed as crystalline form A of the fumarate salt): 0.04%
Mass change caused by moisture absorption (%) ([2]; target humidity 30%): 0.057%
Mass change caused by moisture absorption (%) ([2]; target humidity 40%): 0.078%
Mass change caused by moisture absorption (%) ([2]; target humidity 50%): 0.096%
Mass change caused by moisture absorption (%) ([2]; target humidity 60%): 0.117%
Mass change caused by moisture absorption (%) ([2]; target humidity 70%): 0.137%
Mass change caused by moisture absorption (%) ([2]; target humidity 80%): less than 0.2%
Mass change caused by moisture absorption (%) ([2]; target humidity 80%, listed as crystalline form A of the fumarate salt): 0.158%
Mass change caused by moisture absorption (%) ([2]; target humidity 90%): less than 0.2%
Mass change caused by moisture absorption (%) ([2]; target humidity 90%, listed as crystalline form A of the fumarate salt): 0.192%
Relative purity after storage ([3]; LC-MS): up to 99%
Change after storage (crystalline form and purity, in words) ([3]; XRPD and LC-MS): without significant change
AUC(0-inf) [4, 6]: 66.7 ng·h/mL
AUC(0-t) [4, 6]: 66.2 ng·h/mL
half-life [4, 6]: 33 min
Cmax ([4]; beagle, dog, venous blood, po, analyte: free base of the compound of Formula (I), read-out: Cmax): 67.4 ng/mL
Conversion to TFV (in words) [4]: rapidly converted to TFV
MRTINF [4, 7]: 73.2 min
Tmax [4, 7]: 41.4 min

C[C@H](Cn1cnc2c(N)ncnc21)OC[P@@](=O)(NCCOCc1ccccc1)Oc1ccccc1 [listing 2 of 3 here]
Mass change caused by moisture absorption (%) ([2]; target humidity 20%): 0.2%

C[C@H](Cn1cnc2c(N)ncnc21)OC[P@@](=O)(NCCOCc1ccccc1)Oc1ccccc1 [listing 3 of 3 here]
AUCINF [4, 8]: 43.4 ng·h/mL
AUClast [4, 8]: 41.7 ng·h/mL
Cmax [4, 8]: 77.5 ng/mL
MRTINF [4, 8]: 33.6 min
T1/2 [4, 8]: 17.4 min
Tmax [4, 8]: 18.6 min

CC(C)OC(=O)[C@H](C)N[P@](=O)(CO[C@H](C)Cn1cnc2c(N)ncnc21)Oc1ccccc1 [TAF, Tenofovir alafenamide]
ALT recovery rate ([5]; patients): lower than 80%
Patients in whom glomerular filtration rate decreased by more than 25% ([5]; share of patients): more than 10%
Patients in whom spinal bone mineral density (BMD) decreased by more than 5% ([5]; share of patients): more than 10%
